Source: patent US20260048060A1, “POLYCYCLIC THYROID HORMONE b RECEPTOR AGONIST AND USE THEREOF” (CASCADE PHARMACEUTICALS, INC., priority 2022, published 2026)

Columns and labels:
THRβ [1] = target: T1, THRβ (Homo sapiens, UniProt P10828); experiment: Reporter gene (GAL4-THRβ-LBD / Dual-Glo luciferase) agonist activity assay in HEK293T cells; type: cell-based; conditions: ratio of reporter gene EC50 values THRα/THRβ
T1 construct: expressed in transfected cells; host or cells: HEK293T
T1 sequence (P10828 217-461): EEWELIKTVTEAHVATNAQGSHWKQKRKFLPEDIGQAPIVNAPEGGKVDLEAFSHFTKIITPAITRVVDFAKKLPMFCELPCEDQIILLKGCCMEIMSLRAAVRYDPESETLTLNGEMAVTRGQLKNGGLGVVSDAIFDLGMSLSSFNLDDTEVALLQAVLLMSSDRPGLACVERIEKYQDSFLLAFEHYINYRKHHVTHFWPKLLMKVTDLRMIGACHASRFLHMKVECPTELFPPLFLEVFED
Excerpt: Experimental Example 1: Detection of THRα and THRβ Agonist Activities of Compounds Based on Reporter Gene Activity Assay Method
1.1 Construction and Preparation of Plasmids pGAL4-THR-LBD and pG5-Luc
The pGAL4-THRα-LBD and pGAL4-THRβ-LBD plasmids used in the reporter gene assay system were constructed by a conventional molecular cloning method comprising the following main steps: the cDNA sequences of THRα (NM_003250) and THRβ (NM_000461) corresponding to the amino acid sequences of THRα (163-407AA) and THRβ (217-461AA) were inserted into the BamHI and NotI enzyme digestion sites of the pGAL4 vector by the PCR technique respectively to obtain the pGAL4-THRα-LBD and pGAL4-THRβ-LBD plasmids; the pG5-Luc (#E249A) and pRL-TK (#E2241) plasmids were purchased from Promega; the plasmids were transfected into the E. coli DH5α by the CaCl2 method, and after further culture and amplification, the plasmids were purified by Plasmid Extraction Kits (TIANGEN, #D107) to obtain the corresponding plasmid DNAs.
1.2 Co-Transfection of Plasmids into HEK293T Cells and Treatment with Compounds
The HEK293T cells were inoculated into a 96-well plate at a density of 1×10^4/well the day before plasmid transfection. Cell transfection was conducted according to the instructions of the transfection reagent FuGENE® HD (Promega, #E2311). The main steps were as follows: taking one well as an example here, the plasmids pGAL4-THRα-LBD or pGAL4-THRβ-LBD, pG5-Luc, and pRL-TK were added in the proportions of 20 ng, 50 ng, and 5 ng to 10 μL of Opti-MEM™ I medium (Gibco, #11058021) and mixed well; subsequently, 0.25 uL of FuGENE® HD was added, mixed well, and then left at room temperature for 5 min; afterwards, 10 μL of the mixture was added to the cell wells containing 100 μL of culture medium. After cell co-transfection for 6 h, the compound was diluted in a 3-fold gradient with dimethyl sulfoxide at the highest concentration of 1 uM. The compound was added to the cell culture medium at a total of 10 concentrations for treatment for 24 h. There were a total of two duplicate wells for each concentration. Triiodothyronine (T3) was used as the positive control.
1.3 Dual-Glo Luciferase Assay
After the cells were treated with the compound for 24 h, the cells were assayed according to the instructions of Dual-Glo® Luciferase Assay System (Promega, #E2940). The main steps were as follows: 50 μL of culture medium was aspirated from each well and discarded, and then 50 μL of Dual-Glo® Luciferase reagent was added and oscillated at room temperature for 10 min; 80 μL of lysis reaction solution was measured into a white opaque optiPlate-96-well plate, and the luminescence signal value (Firefly-Luc) of the Firefly luciferase was detected using an MD i3x multi-mode microplate reader; 40 μL of Dual-Glo® Stop & Glo® reagent was then added, and oscillated at room temperature for 10 min; the luminescence signal value (Renilla-Luc) of the Renilla luciferase was then detected using an MD i3x multi-mode microplate reader. The Firefly-Luc/Renilla-Luc ratio was used as the activation activity of the compound against THR, and the ratio in the solvent DMSO group was used for normalization; the dose-response curve was fitted with four parameters using the GraphPad Prism6.0 software, and the EC50 value was calculated.

THRβ [2] = target: T2, THRβ (Homo sapiens, UniProt P10828); experiment: Time-resolved FRET (THR-FRET) agonist activity assay, GST-tagged THRβ LBD with SRC2 polypeptide; type: biochemical; conditions: ratio of THR-FRET EC50 values THRα/THRβ
T2 construct: made in house; host or cells: E. coli BL21 (DE3)
T2 sequence (P10828 217-461 limits assumed): T1 sequence (P10828 217-461)
Excerpt: Experimental Example 2: Detection of Agonist Activities of Compounds Against THRα/β Based on Time-Resolved Fluorescence Resonance Energy Transfer (THR-FRET)
By visiting NCBI, the THRα/β LBD domain sequences were found. The pET21-His-GST-dLBT-THRα LBD and pET21-His-GST-dLBT-THRβ LBD overexpression vectors were constructed by the fusion method, and sequenced to confirm the accuracy of the sequences.
The correctly sequenced THRα LBD and THRβ LBD overexpression vectors were transfected into E. coli cells BL21 (DE3), and spread on an agar plate with ampicillin. Monoclones were picked out and amplified in an LB medium, and transferred into 1 L LB at a ratio of 1:100 for large-scale culture. When the OD value was at 0.8 to 1.2, 0.5 mM isopropyl-beta-D-thiogalactopyranoside (IPTG) was added, and induced overnight at 18° C. The bacteria were harvested, disrupted, and purified via the GST column and the molecular sieve to obtain two proteins His-GST-dLBT-THRα LBD and His-GST-dLBT-THRβ LBD.
The proteins were taken out from a refrigerator at −80° C. The proteins with the GST-tagged THRα/β LBD domain and the Eu-labelled GST antibodies were thawed slowly on ice, and an assay buffer containing a final concentration of 5 mM dithiothreitol (DTT) was formulated.
The starting concentration of the compound was 100 μM (in DMSO). The compound (100 μM in DMSO) was subjected to 3-fold isogradient dilution with DMSO to obtain a total of 11 isogradient concentrations. Subsequently, the above compounds at the isogradient concentration were further subjected to 50-fold dilution with an assay buffer containing 5 mM DTT.
The final concentrations of all components were calculated based on a system with a final volume of 20 μL per well. To 18 μL of assay buffer containing 5 mM DTT, the GST-tagged THRα/β proteins, the SRC2 ([…]) polypeptide, XL665 (Cisobio, #610SAXLB), and the Eu-labeled GST antibody were added, and the final concentrations were 2 nM, 200 nM, 0.05 nM, and 7.6 nM respectively to formulate 18 μL of reaction mixture of the proteins, polypeptide, and antibody per well.
18 μL of reaction mixture and 2 μL of diluted compound were added into an optiplate-384-well plate, and reacted at room temperature for 24 h.
The plate was read using an MD i3X multi-mode microplate reader with the excitation and emission wavelengths of 340 nm and 665 nm, respectively. The intensity of light at a wavelength of 616 nm generated by europium excited by 340 nm wavelength light from the MD i3X multi-mode microplate reader was used as the background. According to the different activation degrees of different compounds against THRα and THRβ, the intensity of the emission light at a wavelength of 665 nm generated by exciting XL665 with the exciting light at a wavelength of 616 nm was varied. The intensity ratio between these two light wavelengths (665 nm, 616 nm) was used as the activation activity of the compound against THRα or THRβ, and the ratio in the solvent DMSO group was used for normalization. The dose-response curve was fitted with four parameters using the GraphPad Prism 6.0 software, and the EC50 value was calculated.

Row | SMILES | Selectivity (THRα/THRβ) (THRβ [1]) | Selectivity (THRα/THRβ) (THRβ [2])
1 | [2H]C(Oc1ccccc1C(=O)NC)c1c(Br)cc(-n2nc(C(F)F)c(=O)[nH]c2=O)cc1Br (stereo not shown) [Compound 106] | † (†: 5 ≥ THRα/β;) | †† (††: 10 ≥ THRα/β;)
2 | [2H]C(F)(F)c1nn(-c2cc(Br)c(COc3ccccc3C(=O)NC)c(Br)c2)c(=O)[nH]c1=O [Compound 107] | † (†: 5 ≥ THRα/β;) | †† (††: 10 ≥ THRα/β;)
3 | [2H]C([2H])(Oc1ccccc1C(=O)NC)c1c(Br)cc(-n2nc(C(F)F)c(=O)[nH]c2=O)cc1Br [Compound 108] | † (†: 5 ≥ THRα/β;) | †† (††: 10 ≥ THRα/β;)
4 | [2H]C([2H])([2H])NC(=O)c1ccccc1OCc1c(Br)cc(-n2nc(C(F)F)c(=O)[nH]c2=O)cc1Br [Compound 109] | † (†: 5 ≥ THRα/β;) | †† (††: 10 ≥ THRα/β;)
5 | [2H]C(Oc1ccccc1C(=O)NC([2H])([2H])[2H])c1c(Br)cc(-n2nc(C(F)F)c(=O)[nH]c2=O)cc1Br (stereo not shown) [Compound 110] | † (†: 5 ≥ THRα/β;) | †† (††: 10 ≥ THRα/β;)
6 | [2H]C(Oc1ccccc1C(=O)NC)c1c(Br)cc(-n2nc(C([2H])(F)F)c(=O)[nH]c2=O)cc1Br (stereo not shown) [Compound 111] | † (†: 5 ≥ THRα/β;) | †† (††: 10 ≥ THRα/β;)
7 | [2H]C([2H])([2H])NC(=O)c1ccccc1OCc1c(Br)cc(-n2nc(C([2H])(F)F)c(=O)[nH]c2=O)cc1Br [Compound 112] | † (†: 5 ≥ THRα/β;) | †† (††: 10 ≥ THRα/β;)
8 | [2H]C(Oc1ccccc1C(=O)NC([2H])([2H])[2H])c1c(Br)cc(-n2nc(C([2H])(F)F)c(=O)[nH]c2=O)cc1Br (stereo not shown) [Compound 113] | † (†: 5 ≥ THRα/β;) | †† (††: 10 ≥ THRα/β;)
